Test results from patent US6107333A (priority 1999, dated 2000).
“Also recorded” adds a separate entry of the source. Read-outs that look alike come from different tables or passages of the source.

Key:
[1] = system: ovarian and mammary carcinomas; settings: clinical testing; cited from earlier work
[2] = for Stability (in words) / Degradation over first 60 days (in words): 25 mg/ml; for Stability of use-formulation (in words): aqueous lipid emulsion as terminal solvent
Description: To study the physical and chemical stability of the various parenteral formulations, 3 sets of studies were performed: […]
The various formulations were analyzed by HPLC immediately after mixing, then hourly for 8 hours, and then at gradually increasing time intervals for more than 10 days, depending on the initial rate of degradation in the respective solvent system.
Different aliquots were stored at 4° C., 22° C., 40° C., and 60° C. […] Immediately after solubilization and at various intervals up to more than 50 days, aliquots from different samples were analyzed by HPLC.

[3] = Paclitaxel plasma concentration after iv injection in rats; type: in vivo, male Sprague-Dawley rats; settings: 3 mg/kg iv
Description: For the in vivo study, male Sprague-Dawley rats with a body weight of 250-300 g were used. They were bought from the Harlan-Sprague-Dawley local breeding facility in Houston, Tex. The animals were allowed a minimum of 3-4 days to accommodate to the change of environment after shipping to the MD Anderson Cancer Center. All animals were allowed free access to commercial feed and tap water prior to and during the pharmacological study. The dose of 3 mg/kg was determined as the highest dose that could be given to the rats as a slow iv injection of the Cremophor® EL based preparation without a lethal anaphylactoid reaction in the absence of pharmacological premedication.
This avoided the possible influence of induction of microsomal liver enzymes which could alter drug metabolism/elimination and influence (the later part of) the plasma concentration curve. For the same reason, all animals were unanesthesized and only physically restrained during the drug injection. The drug concentration of the injected use-formulation was confirmed by HPLC prior to use. […] The blood was centrifuged at 1,000×g for 10 min and the plasma was separated and stored at -80° C. until extracted and assayed by HPLC as described above.

[4] = system: erythrocytes; test: Hemolysis studies in vitro; type: cell-based; settings: drug concentrations up to and exceeding 50 μg/ml; 4 hours at 37° C.
Description: The procedure of Parthasarathy et al. was used to examine the hemolytic potential of a few selected preparations and the LD50 values of the most optimal formulation was constructed as described (Parthasarathy et al., 1994). Heparinized blood was mixed with an equal volume of Alsever's solution. […] These mixtures were then incubated for 4 hours at 37° C. At the end of the incubation, the cells were pelleted at 10,000×gin an Eppendorf micro-centrifuge and the release of hemoglobin in the supernatant (ie., hemolysis) was determined spectrophotometrically at 550 nm. Maximum lysis was measured against a reference solution of erythrocytes that had been completely lysed by hypotonic shock. The hemolytic potential of the "optimal" complete formulation was evaluated as described (Parthasarathy et al., 1994) and the data were plotted as the fraction of healthy cells versus 1n (total volume percent). Total volume percent was defined as the volume percent of the vehicle in the mixture after dilution with blood. This was done to simulate the dilution of the respective drug formulation in the blood stream after parenteral administration.

[5] = Solubility of paclitaxel in various solvents (HPLC); type: physicochemical
Description: A known amount of the drug, as a powder (two different aliquots of purified drug were obtained from Xechem Inc. New Brunswick, N.J.), was equilibrated in the respective solvent at RT (22° C.) over 1 hour. An aliquot was then removed and diluted in MeOH prior to HPLC at predetermined times. […] Different solvent systems were evaluated relative to the above estimates of necessary solubility to arrive at a clinically relevant stable stock formulation. This stock formulation would then be diluted with a "final solvent" to yield a complete stable clinical working formulation of 1-5 mg/ml, that could be infused parenterally. The final solvent was selected from one of the commonly utilized parental infusion fluids, NS, 5% dextrose in water or a parenterally acceptable aqueous lipid emulsion (e.g., Intralipid), all of which are readily available and approved for parenteral administration.
An excess of paclitaxel as a powder was added to DMA, DMSO, PEG, and PG at RT. Each mixture was placed in a dark environment and checked visually for up to 1 hour for evidence of solubilization.

## CC(=O)O[C@H]1C(=O)[C@@]2(C)[C@H]([C@H](OC(=O)c3ccccc3)[C@]3(O)C[C@H](OC(=O)[C@H](O)[C@@H](NC(=O)c4ccccc4)c4ccccc4)C(C)=C1C3(C)C)[C@]1(OC(C)=O)CO[C@@H]1C[C@@H]2O [Paclitaxel]
[1]
  Antitumor activity (in words): impressive activity against ovarian and mammary carcinomas
[2]
  Time within which significant degradation took place: 4 to 6 h
  Time without discernible degradation: more than 4.5 months
[2]; room temperature
  Stability (in words): stable at 25 mg/ml for several months at room temperature
[2]; DMA with PEG added (stock solution)
  Concentration of stable solution: 25000 µg/mL
[2]; DMA:PEG (1:3, v/v) stock, 4° C.
  Degradation over first 60 days (in words): did not show any significant degradation
[2]; DMA:PEG (1:3, v/v) stock, 4° C., 4.5 months
  Stability (in words): overlapping with that recorded for the samples stored at RT
[2]; DMA:PEG (1:3, v/v) stock, 40° C.
  Degradation over first 60 days (in words): did not show any significant degradation
[2]; DMA:PEG (1:3, v/v) stock, RT
  Degradation over first 60 days (in words): did not show any significant degradation
[2]; 1 mg/ml, 4° C.
  Stability of use-formulation (in words): stable at 1 mg/ml and at 5 mg/ml for over one week
[2]; 1 mg/ml, RT
  Stability of use-formulation (in words): stable at 1 mg/ml and at 5 mg/ml for over one week
[2]; 5 mg/ml, 4° C.
  Stability of use-formulation (in words): stable at 1 mg/ml and at 5 mg/ml for over one week
[2]; 5 mg/ml, RT
  Stability of use-formulation (in words): stable at 1 mg/ml and at 5 mg/ml for over one week
[2]; in DMA, >100 mg/ml, RT
  Degradation on storage (in words): started degrading slowly after storage over night at RT
[3]
  Paclitaxel plasma concentrations (in words): clearly cytocidal concentrations of paclitaxel are maintained for many hours; also recorded: clearly reach, and for extended time, remain in the antineoplastic range
[4]
  Paclitaxel dependent lysis (in words): barely notable above background
[5]; 5% dextrose, solvent 5% dextrose, 60 min at room temperature, read-out: Solubility
  solubility: < 100 µg/mL
[5]; PEG-400, PG, NS, Intralipid and 5% dextrose, RT
  Solubility (in words): did not yield any significant concentrations of solubilized drug
[5]; dma, organic solvent or mixture, solvent DMA, RT, read-out: Solubility
  solubility: > 200000 µg/mL
[5]; dmso, organic solvent or mixture, solvent DMSO, RT, read-out: Solubility
  solubility: > 100000 µg/mL
[5]; intralipid, solvent Intralipid, 60 min at room temperature, read-out: Solubility
  solubility: < 100 µg/mL
[5]; most of the aqueous solvents
  Solubility (in words): insoluble in most of the aqueous solvents
[5]; normal saline, solvent normal saline, 60 min at room temperature, read-out: Solubility
  solubility: < 100 µg/mL
[5]; peg, organic solvent or mixture, solvent PEG, 60 min at room temperature, read-out: Solubility
  solubility: < 100 µg/mL
[5]; propylene glycol, organic solvent or mixture, solvent propylene glycol, 60 min at room temperature, read-out: Solubility
  solubility: < 100 µg/mL
[5]; solvent DMA, RT
  solubility: > 100000 µg/mL
